System: MCF-7 breast cancer cells
Experiment: Microarray gene expression analysis (Agilent whole human genome 4 x 44K; compound vs DMSO, LIMMA log2 fold change)
Type: cell-based
Details: cell cycle genes

Oc1cccc(-c2nc(N3CCOCC3)c3oc4ncccc4c3n2)c1 [PI-103]
TUBB3 log2FC (Gene 10381): -0.59
ANAPC10 log2FC (Gene 10393): 0.20
NDRG1 log2FC (Gene 10397): 1.49
GNB2L1 log2FC (Gene 10399): -0.0332
PRMT5 log2FC (Gene 10419): -0.13
MAD2L2 log2FC (Gene 10459): 0.16
TACC3 log2FC (Gene 10460): -0.29
CREB3 log2FC (Gene 10488): -0.0661
MYBBP1A log2FC (Gene 10514): -0.30
CIB1 log2FC (Gene 10519): -0.08
SSSCA1 log2FC (Gene 10534): -0.27
DCTN2 log2FC (Gene 10540): 0.11
SMC2 log2FC (Gene 10592): 0.63
ERN2 log2FC (Gene 10595): -0.68
USP16 log2FC (Gene 10600): 0.68
HEXIM1 log2FC (Gene 10614): -0.43
SPAG5 log2FC (Gene 10615): 0.36
STAMBP log2FC (Gene 10617): 0.27
TXNIP log2FC (Gene 10628): 2.21
PDPN log2FC (Gene 10630): -0.0347
RGS14 log2FC (Gene 10636): 0.71
CTCF log2FC (Gene 10664): -0.22
CGRRF1 log2FC (Gene 10668): 0.54
CGREF1 log2FC (Gene 10669): 0.00665
USP39 log2FC (Gene 10713): -0.0422
NUDC log2FC (Gene 10726): -0.38
PLK4 log2FC (Gene 10733): 0.52
STAG3 log2FC (Gene 10734): 0.43
STAG2 log2FC (Gene 10735): 1.19
NES log2FC (Gene 10763): -0.28
PLK2 log2FC (Gene 10769): -0.93
NEK6 log2FC (Gene 10783): -0.68
SDCCAG8 log2FC (Gene 10806): 0.62
TUBGCP2 log2FC (Gene 10844): 0.037
LILRB1 log2FC (Gene 10859): -0.21
USP19 log2FC (Gene 10869): 0.38
BLCAP log2FC (Gene 10904): -0.47
TXNL4A log2FC (Gene 10907): -0.46
SUGT1 log2FC (Gene 10910): 0.24
GADD45G log2FC (Gene 10912): -0.19
EHMT2 log2FC (Gene 10919): 0.25
BTG3 log2FC (Gene 10950): 0.00788
MAPRE2 log2FC (Gene 10982): -0.34
KIF2C log2FC (Gene 11004): 0.44
TLK2 log2FC (Gene 11011): 0.62
RAB35 log2FC (Gene 11021): -0.44
TDRKH log2FC (Gene 11022): 0.0086
PIM2 log2FC (Gene 11040): -0.54
UBE2C log2FC (Gene 11065): -0.18
TRIOBP log2FC (Gene 11078): 0.53
NUPL2 log2FC (Gene 11097): -0.024
KATNA1 log2FC (Gene 11104): 0.67
PRDM4 log2FC (Gene 11108): 0.26
CIT log2FC (Gene 11113): 0.53
ZWINT log2FC (Gene 11130): -0.23
CDC37 log2FC (Gene 11140): -0.17
LZTS1 log2FC (Gene 11178): -0.98
WDR6 log2FC (Gene 11180): -0.36
RASSF1 log2FC (Gene 11186): 0.72
CEP250 log2FC (Gene 11190): -0.14
PMF1 log2FC (Gene 11243): -0.18
DCTN3 log2FC (Gene 11258): 0.31
TUSC2 log2FC (Gene 11334): -0.50
OIP5 log2FC (Gene 11339): 0.0365
MAPRE1 log2FC (Gene 22919): -0.57
MAPRE3 log2FC (Gene 22924): 0.0211
TRIM32 log2FC (Gene 22954): -0.32
TPX2 log2FC (Gene 22974): -0.00173
AZI1 log2FC (Gene 22994): 0.93
CEP152 log2FC (Gene 22995): 0.55
USP33 log2FC (Gene 23032): 0.88
WAPAL log2FC (Gene 23063): 0.61
TRIM35 log2FC (Gene 23087): 0.20
CLASP2 log2FC (Gene 23122): 0.55
POGZ log2FC (Gene 23126): 0.58
PHF8 log2FC (Gene 23133): -0.18
SMC5 log2FC (Gene 23137): -0.36
FBXL7 log2FC (Gene 23194): 0.0429
PSME4 log2FC (Gene 23198): -0.07
RRS1 log2FC (Gene 23212): -0.91
NUP210 log2FC (Gene 23225): -0.44
PLCB1 log2FC (Gene 23236): 1.31
BOP1 log2FC (Gene 23246): -0.18
NUP160 log2FC (Gene 23279): -0.78
FBXW11 log2FC (Gene 23291): -0.28
UBR2 log2FC (Gene 23304): 0.76
USP22 log2FC (Gene 23326): 0.07
CLASP1 log2FC (Gene 23332): -0.36
PPP1R13B log2FC (Gene 23368): 0.0642
DICER1 log2FC (Gene 23405): -0.87
SIRT1 log2FC (Gene 23411): 1.17
ITGB3BP log2FC (Gene 23421): 0.69
PES1 log2FC (Gene 23481): -0.38
ZFYVE26 log2FC (Gene 23503): 0.40
SCRIB log2FC (Gene 23513): 0.03
CCNDBP1 log2FC (Gene 23582): 0.71
CD2AP log2FC (Gene 23607): 0.81
NUP62 log2FC (Gene 23636): -0.63
RABGAP1 log2FC (Gene 23637): 0.55
PPP1R15A log2FC (Gene 23645): 0.51
POLA2 log2FC (Gene 23649): -0.87
ZNF318 log2FC (Gene 24149): 0.53
RAD54B log2FC (Gene 25788): 0.42
NIPBL log2FC (Gene 25836): 0.88
INTS7 log2FC (Gene 25896): -0.23
AHCTF1 log2FC (Gene 25909): 0.40
SIN3A log2FC (Gene 25942): 0.89
SH2B1 log2FC (Gene 25970): -0.49
EGFL6 log2FC (Gene 25975): 0.03
SENP6 log2FC (Gene 26054): 0.54
FBXO6 log2FC (Gene 26270): 0.37
FBXO5 log2FC (Gene 26271): 0.49
NUPR1 log2FC (Gene 26471): 0.07
AATF log2FC (Gene 26574): -0.41
CKAP2 log2FC (Gene 26586): 0.63
HBP1 log2FC (Gene 26959): 2.74
MLH3 log2FC (Gene 27030): 0.23
MTBP log2FC (Gene 27085): 0.79
TJP3 log2FC (Gene 27134): 0.31
VPS4A log2FC (Gene 27183): -0.29
PDCD4 log2FC (Gene 27250): 1.70
APEX2 log2FC (Gene 27301): -0.66
UBE2S log2FC (Gene 27338): -0.66
EML4 log2FC (Gene 27436): -0.50
PPP2R3B log2FC (Gene 28227): 0.28
MCTS1 log2FC (Gene 28985): -0.21
HIPK2 log2FC (Gene 28996): -0.14
BRD7 log2FC (Gene 29117): 0.53
RACGAP1 log2FC (Gene 29127): 0.55
UHRF1 log2FC (Gene 29128): -0.33
PSMC3IP log2FC (Gene 29893): -0.14
GPSM2 log2FC (Gene 29899): 0.32
SAC3D1 log2FC (Gene 29901): 0.09
RPA4 log2FC (Gene 29935): 0.55
ANAPC4 log2FC (Gene 29945): 0.43
SERTAD1 log2FC (Gene 29950): -0.75
CUZD1 log2FC (Gene 50624): 0.31
PARD6A log2FC (Gene 50855): 0.11
GMNN log2FC (Gene 51053): -0.12
RPS27L log2FC (Gene 51065): 0.28
MLXIPL log2FC (Gene 51085): 0.34
SBDS log2FC (Gene 51119): 0.46
DYNC1LI1 log2FC (Gene 51143): 0.52
ING4 log2FC (Gene 51147): 1.59
TUBE1 log2FC (Gene 51175): 0.0372
LEF1 log2FC (Gene 51176): -0.89
HERC5 log2FC (Gene 51191): 0.75
NUSAP1 log2FC (Gene 51203): 0.74
DUSP13 log2FC (Gene 51207): 0.0185
WAC log2FC (Gene 51322): 0.91
DACT1 log2FC (Gene 51339): 0.04
FZR1 log2FC (Gene 51343): -0.32
TAOK3 log2FC (Gene 51347): 1.14
PRKAG2 log2FC (Gene 51422): -0.54
SNX9 log2FC (Gene 51429): 0.42
ANAPC7 log2FC (Gene 51434): -0.32
LCMT1 log2FC (Gene 51451): 0.00313

From paper PMC4303209, “A novel phosphatidylinositol 3-kinase (PI3K) inhibitor directs a potent FOXO-dependent, p53-independent cell cycle arrest phenotype characterized by the differential induction of a subset of FOXO-regulated genes” (Breast Cancer Research : BCR, 2014)
